What was measured:
[1] = target: T1, CG6178 (Drosophila melanogaster, UniProt Q9VCC6); experiment: X-ray crystal structure, […] Å; assay type: binding; settings: active site; co-purified fatty acid adenylated with 10 mM ATP, ligand modelled as best fit to density; pH 7.5, 25 °C
T1 construct: gene Dmel\CG6178; full length, 544 residues; GST fusion from pGEX-6P-1 in E. coli BL21(DE3), GST cleaved with PreScission protease
T1 sequence (Q9VCC6 1-544): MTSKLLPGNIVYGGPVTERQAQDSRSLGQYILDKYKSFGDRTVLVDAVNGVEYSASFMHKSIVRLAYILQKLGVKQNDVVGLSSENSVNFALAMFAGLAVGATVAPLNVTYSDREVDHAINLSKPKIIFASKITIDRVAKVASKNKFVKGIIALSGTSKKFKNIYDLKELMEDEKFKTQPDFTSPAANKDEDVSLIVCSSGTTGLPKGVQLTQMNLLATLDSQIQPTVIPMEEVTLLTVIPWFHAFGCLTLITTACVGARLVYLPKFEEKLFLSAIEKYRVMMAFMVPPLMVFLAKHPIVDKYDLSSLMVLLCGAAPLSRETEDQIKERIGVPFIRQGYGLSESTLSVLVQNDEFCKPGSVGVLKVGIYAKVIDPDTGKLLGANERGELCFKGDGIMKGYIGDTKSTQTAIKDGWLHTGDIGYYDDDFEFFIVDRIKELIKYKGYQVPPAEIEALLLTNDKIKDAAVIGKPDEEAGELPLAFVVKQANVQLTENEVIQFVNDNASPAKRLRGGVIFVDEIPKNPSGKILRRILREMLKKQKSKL

[2] = target: T2, Fluc (Photinus pyralis, UniProt P08659); experiment: live-cell bioluminescence imaging (IVIS-100); assay type: cell-based; settings: transfected CHO cells, 0.122-250 μM substrate
T2 construct: luc2 gene in pcDNA3.1, transfected CHO cells
T2 sequence (P08659 whole entry): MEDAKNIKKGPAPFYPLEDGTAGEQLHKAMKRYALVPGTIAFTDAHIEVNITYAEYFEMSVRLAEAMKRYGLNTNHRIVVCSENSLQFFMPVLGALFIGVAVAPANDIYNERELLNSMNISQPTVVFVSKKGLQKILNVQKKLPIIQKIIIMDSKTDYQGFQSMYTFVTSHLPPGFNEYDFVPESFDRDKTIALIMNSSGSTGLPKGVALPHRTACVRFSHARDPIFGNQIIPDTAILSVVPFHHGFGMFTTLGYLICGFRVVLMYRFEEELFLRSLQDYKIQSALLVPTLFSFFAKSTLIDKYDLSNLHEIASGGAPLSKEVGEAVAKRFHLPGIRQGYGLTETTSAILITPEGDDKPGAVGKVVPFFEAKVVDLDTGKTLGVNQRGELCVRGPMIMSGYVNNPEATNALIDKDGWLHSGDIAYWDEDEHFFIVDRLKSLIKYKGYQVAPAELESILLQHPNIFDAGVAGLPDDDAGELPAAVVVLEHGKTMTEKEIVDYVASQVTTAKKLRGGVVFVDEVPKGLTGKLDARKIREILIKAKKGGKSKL

SMILES	X-ray crystal structure, 2.5 Å [1]	live-cell bioluminescence imaging (IVIS-100) [2]
CCCCCCCC(=O)OP(=O)(O)OC[C@H]1O[C@@H](n2cnc3c(N)ncnc32)[C@H](O)[C@@H]1O [octanoyl-AMP]	octanoyl-AMP (C8) and an ethylene glycol in the active site is most consistent with the data	
CN1CCc2cc3nc(C4=N[C@@H](C(=O)O)CS4)sc3cc21 [CycLuc2]		relative performance of all three enzymes with CycLuc2

Source: doi:10.1101/2023.06.30.547126, “FruitFire: a luciferase based on a fruit fly metabolic enzyme” (bioRxiv, 2023)
